Experimental data from ChEMBL document CHEMBL1201862, “PubChem BioAssay data set” (2004).
Calls of active or inactive are those of the source.

Assays:
Format in all cases: functional
[1] = biological target: T1, High affinity choline transporter 1 (Homo sapiens, UniProt Q9GZV3); assay: CHT inhibitors, dose response, cell-based, 5-point CRC, membrane potential dye (AID 504840)
T1 sequence (Q9GZV3 whole entry): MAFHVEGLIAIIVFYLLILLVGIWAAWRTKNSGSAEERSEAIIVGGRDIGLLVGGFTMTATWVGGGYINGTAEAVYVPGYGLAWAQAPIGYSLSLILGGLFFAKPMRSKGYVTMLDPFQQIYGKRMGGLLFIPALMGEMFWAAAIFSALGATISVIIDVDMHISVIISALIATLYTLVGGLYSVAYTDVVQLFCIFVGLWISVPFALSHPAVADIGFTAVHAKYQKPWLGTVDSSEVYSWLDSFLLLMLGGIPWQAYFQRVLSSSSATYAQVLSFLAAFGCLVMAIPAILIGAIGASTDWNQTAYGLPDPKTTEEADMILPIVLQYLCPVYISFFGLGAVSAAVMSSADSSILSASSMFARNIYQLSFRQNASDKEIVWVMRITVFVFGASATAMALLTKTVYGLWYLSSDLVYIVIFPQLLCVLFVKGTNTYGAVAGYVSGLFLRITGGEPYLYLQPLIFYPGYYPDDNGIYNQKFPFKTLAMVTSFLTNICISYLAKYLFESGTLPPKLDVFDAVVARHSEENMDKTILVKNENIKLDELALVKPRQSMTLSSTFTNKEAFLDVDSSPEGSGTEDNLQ

[2] = biological target: T2, Polyadenylate-binding protein 1 (Homo sapiens, UniProt P11940); assay: PABP1 MLLE–PAM2 interaction inhibitors, dose response, miRNA deadenylation inhibitor project, biochemical, fluorescence polarization, Cy5-PAM2 peptide, secondary (AID 602260); conditions: read-out: IC50_Mean
T2 sequence (P11940 whole entry): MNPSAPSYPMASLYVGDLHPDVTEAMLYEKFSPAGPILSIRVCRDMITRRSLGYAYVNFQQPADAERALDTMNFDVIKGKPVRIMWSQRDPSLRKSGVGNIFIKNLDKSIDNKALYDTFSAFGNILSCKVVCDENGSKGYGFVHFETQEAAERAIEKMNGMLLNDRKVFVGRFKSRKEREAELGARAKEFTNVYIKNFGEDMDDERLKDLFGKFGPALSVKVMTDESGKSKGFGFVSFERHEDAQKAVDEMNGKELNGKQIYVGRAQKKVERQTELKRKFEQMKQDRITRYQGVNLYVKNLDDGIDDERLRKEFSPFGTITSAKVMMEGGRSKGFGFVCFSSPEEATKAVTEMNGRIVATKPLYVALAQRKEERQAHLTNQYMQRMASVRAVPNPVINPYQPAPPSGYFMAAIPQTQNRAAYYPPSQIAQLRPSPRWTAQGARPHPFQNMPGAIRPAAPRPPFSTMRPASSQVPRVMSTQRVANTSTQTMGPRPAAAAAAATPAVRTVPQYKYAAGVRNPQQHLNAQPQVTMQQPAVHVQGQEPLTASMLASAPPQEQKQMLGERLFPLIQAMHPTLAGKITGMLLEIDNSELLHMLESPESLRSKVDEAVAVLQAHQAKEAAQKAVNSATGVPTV

[3] = biological target: T1, High affinity choline transporter 1; assay: CHT inhibitors, dose response, cell-based, 10-point CRC, membrane potential dye (AID 588401);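 note: membrane potential dye fluorescence of choline-evoked depolarization via CHT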
[4] = biological target: T2, Polyadenylate-binding protein 1; assay: PABP1 MLLE–PAM2 binding inhibitor potency, dose response, biochemical, fluorescence polarization, FITC-PAM2 peptide (AID 602259); conditions: read-out: IC50_Mean
[5] = biological target: Multidrug resistance protein CDR2 (Candida albicans (strain SC5314 / ATCC MYA-2876) (Yeast), UniProt P78595); assay: CaCDR2 efflux pump inhibitors in yeast, dose response, S. cerevisiae AD1-8u, singleplex, Cherry Pick1 hits (AID 588604)
Multidrug resistance protein CDR2, sequence (P78595 whole entry): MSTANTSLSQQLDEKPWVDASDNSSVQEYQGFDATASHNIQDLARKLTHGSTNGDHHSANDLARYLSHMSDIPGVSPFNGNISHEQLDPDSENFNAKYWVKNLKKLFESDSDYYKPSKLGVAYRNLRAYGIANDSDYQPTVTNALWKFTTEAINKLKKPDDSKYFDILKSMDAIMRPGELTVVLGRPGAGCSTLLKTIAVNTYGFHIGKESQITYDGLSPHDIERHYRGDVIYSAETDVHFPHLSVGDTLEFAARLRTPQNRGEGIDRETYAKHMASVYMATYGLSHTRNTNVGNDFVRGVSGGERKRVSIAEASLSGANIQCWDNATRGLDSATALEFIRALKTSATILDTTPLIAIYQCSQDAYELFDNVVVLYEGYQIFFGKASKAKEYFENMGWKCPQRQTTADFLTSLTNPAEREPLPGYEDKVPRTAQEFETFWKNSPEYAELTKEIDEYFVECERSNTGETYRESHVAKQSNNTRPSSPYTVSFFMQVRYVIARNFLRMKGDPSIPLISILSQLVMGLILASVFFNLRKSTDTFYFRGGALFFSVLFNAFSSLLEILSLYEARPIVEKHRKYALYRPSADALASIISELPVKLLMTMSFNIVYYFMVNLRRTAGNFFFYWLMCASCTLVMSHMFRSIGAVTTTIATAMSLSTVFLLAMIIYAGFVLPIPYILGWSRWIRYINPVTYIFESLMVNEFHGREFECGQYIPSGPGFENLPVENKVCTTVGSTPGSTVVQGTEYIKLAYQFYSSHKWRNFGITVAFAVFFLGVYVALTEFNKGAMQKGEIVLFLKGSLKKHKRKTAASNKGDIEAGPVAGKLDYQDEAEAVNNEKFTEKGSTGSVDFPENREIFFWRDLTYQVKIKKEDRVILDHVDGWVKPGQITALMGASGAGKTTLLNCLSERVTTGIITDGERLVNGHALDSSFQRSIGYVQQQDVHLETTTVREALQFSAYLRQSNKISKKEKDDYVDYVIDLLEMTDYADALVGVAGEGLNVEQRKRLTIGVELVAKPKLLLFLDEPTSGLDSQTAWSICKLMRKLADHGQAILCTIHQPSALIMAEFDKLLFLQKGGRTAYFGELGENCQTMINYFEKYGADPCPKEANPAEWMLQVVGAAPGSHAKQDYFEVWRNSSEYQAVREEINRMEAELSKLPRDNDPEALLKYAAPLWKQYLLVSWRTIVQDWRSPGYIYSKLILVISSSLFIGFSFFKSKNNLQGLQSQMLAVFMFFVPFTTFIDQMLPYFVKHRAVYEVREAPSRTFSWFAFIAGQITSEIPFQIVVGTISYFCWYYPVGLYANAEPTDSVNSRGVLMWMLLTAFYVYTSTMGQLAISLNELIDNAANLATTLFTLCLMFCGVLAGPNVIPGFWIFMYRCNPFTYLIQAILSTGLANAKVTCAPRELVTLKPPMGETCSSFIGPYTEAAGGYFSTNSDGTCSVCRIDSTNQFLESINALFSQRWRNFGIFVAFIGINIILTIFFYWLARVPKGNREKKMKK

[6] = biological target: Cyclin-dependent kinase 19 (Homo sapiens, UniProt Q9BWU1); assay: Navigating the Kinome. Panel member name: CDC2L6
Cyclin-dependent kinase 19, sequence (Q9BWU1 whole entry): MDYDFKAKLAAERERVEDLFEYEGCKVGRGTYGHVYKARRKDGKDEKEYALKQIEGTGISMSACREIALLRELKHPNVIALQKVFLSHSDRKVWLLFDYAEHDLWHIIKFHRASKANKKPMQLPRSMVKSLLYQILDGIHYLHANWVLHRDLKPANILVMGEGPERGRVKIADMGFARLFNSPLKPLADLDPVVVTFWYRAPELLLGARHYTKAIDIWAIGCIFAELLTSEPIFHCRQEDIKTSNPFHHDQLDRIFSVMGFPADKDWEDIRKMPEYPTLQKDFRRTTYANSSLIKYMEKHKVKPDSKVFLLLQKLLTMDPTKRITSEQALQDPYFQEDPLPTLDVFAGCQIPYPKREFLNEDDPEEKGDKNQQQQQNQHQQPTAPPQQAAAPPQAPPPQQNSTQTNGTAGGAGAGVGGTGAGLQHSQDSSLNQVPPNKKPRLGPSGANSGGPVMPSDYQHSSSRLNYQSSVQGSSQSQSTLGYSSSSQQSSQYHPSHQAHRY

[7] = biological target: ALK tyrosine kinase receptor (Homo sapiens, UniProt Q9UM73);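 note: ALK tested as one member of a kinase panel screen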
ALK tyrosine kinase receptor, sequence (Q9UM73 whole entry): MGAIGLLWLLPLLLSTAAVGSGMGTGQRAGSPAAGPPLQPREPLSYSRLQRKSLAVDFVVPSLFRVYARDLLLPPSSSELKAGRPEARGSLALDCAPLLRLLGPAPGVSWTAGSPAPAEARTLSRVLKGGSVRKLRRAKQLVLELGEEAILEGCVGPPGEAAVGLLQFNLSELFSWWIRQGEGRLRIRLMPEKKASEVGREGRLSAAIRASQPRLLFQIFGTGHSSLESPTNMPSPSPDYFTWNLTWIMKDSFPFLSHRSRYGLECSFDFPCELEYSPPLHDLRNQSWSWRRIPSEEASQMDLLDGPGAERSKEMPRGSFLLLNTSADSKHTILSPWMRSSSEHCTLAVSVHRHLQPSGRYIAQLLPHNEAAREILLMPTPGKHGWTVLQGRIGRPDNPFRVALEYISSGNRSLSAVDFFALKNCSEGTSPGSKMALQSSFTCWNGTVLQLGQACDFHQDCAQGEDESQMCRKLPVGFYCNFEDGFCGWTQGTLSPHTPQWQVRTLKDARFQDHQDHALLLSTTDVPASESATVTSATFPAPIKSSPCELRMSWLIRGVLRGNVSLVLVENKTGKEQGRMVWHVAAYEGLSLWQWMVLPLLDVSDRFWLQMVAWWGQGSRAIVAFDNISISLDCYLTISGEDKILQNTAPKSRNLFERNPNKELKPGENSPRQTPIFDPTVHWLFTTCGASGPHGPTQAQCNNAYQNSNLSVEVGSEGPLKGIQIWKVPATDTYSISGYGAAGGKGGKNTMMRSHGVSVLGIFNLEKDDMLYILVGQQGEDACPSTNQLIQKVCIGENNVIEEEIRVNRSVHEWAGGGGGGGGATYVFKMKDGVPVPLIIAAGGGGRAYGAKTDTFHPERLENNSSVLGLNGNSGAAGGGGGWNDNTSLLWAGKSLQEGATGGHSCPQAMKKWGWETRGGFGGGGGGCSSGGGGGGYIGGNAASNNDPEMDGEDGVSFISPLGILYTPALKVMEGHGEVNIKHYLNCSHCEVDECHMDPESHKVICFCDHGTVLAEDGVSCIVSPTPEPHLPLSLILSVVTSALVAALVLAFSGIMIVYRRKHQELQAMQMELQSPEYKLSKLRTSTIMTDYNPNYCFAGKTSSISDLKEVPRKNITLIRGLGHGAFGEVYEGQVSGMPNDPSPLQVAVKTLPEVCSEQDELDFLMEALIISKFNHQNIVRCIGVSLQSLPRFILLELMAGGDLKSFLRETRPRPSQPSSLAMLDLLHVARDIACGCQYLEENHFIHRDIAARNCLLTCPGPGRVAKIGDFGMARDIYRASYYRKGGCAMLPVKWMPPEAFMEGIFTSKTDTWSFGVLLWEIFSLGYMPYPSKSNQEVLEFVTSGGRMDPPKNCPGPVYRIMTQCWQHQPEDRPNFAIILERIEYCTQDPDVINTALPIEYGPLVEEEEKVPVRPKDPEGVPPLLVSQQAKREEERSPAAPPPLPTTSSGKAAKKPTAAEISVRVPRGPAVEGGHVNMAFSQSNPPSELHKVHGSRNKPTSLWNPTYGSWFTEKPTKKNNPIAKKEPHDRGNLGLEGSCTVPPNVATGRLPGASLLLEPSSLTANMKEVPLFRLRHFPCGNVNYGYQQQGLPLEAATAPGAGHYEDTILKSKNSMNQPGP

[8] = biological target: DNA dC->dU-editing enzyme APOBEC-3G (Homo sapiens, UniProt Q9HC16); assay: SAR analysis of small molecule inhibitors of APOBEC3G DNA Deaminase via a fluorescence-based single-stranded DNA deaminase assay - Set 2.; conditions: read-out: IC50_Mean
[9] = biological target: DNA dC->dU-editing enzyme APOBEC-3A (Homo sapiens, UniProt P31941); assay: SAR analysis of small molecule inhibitors of APOBEC3A DNA Deaminase via a fluorescence-based single-stranded DNA deaminase assay - Set 2.; conditions: read-out: IC50_Mean
DNA dC->dU-editing enzyme APOBEC-3A, sequence (P31941 whole entry, canonical isoform): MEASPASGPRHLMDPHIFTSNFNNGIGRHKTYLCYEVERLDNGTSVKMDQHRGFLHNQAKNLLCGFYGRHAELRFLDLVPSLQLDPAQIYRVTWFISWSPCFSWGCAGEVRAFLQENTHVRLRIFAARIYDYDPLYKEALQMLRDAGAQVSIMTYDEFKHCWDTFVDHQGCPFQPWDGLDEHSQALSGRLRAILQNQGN

[10] = biological target: Casein kinase I isoform alpha (Homo sapiens, UniProt P48729)
[11] = biological target: Dual specificity protein kinase CLK4 (Homo sapiens, UniProt Q9HAZ1)
Dual specificity protein kinase CLK4, sequence (Q9HAZ1 whole entry): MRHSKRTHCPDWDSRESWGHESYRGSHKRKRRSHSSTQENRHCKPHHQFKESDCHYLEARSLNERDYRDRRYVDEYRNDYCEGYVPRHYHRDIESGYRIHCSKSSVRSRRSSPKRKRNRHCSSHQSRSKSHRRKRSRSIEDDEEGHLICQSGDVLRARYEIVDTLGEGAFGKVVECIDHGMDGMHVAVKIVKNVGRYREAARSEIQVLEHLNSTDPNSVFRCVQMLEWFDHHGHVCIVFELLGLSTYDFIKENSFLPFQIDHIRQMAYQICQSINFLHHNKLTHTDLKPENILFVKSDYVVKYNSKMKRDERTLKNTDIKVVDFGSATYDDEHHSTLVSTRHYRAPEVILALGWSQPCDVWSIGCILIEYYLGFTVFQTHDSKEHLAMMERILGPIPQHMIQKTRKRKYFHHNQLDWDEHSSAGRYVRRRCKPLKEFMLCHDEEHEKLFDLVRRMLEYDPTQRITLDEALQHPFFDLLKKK

## S=C(NCc1ccccn1)Nc1ccc(Br)cc1Cl
[1]
  IC50: 3.84 µM (active)
[2]
  IC50: > 66 µM (inactive)
[3]
  IC50: 1.58 µM (active)
[4]
  IC50: > 66 µM (inactive)

## COc1ccc(-c2nc3ccccc3c(=O)n2CCOc2ccc(C)cc2C)cc1
[5]
  EC50: 15.2 µM (active)

## Cn1cc(Nc2ncc(Cl)c(Nc3ccccc3)n2)cn1
[6]
  Ki: 2 µM (active)
[7]
  Ki: 1.58 µM (active)

## CCc1nc2sc3c(c2c2nnc(S)n12)CCC(C)C3 (stereo unspecified)
[8]
  IC50: > 99 µM (inactive)
[9]
  IC50: > 99 µM (inactive)

## Nc1nnc(-c2ccccc2)c(N)n1
[10]
  Ki: 20 µM (active)
[11]
  Ki: 39.8 µM (active)
